One may read the IC50 as the concentration needed to halve the response being measured.

A value given as a limit tells only on which side of the number the result lay.

Chain of USP7 (Q93009 whole entry): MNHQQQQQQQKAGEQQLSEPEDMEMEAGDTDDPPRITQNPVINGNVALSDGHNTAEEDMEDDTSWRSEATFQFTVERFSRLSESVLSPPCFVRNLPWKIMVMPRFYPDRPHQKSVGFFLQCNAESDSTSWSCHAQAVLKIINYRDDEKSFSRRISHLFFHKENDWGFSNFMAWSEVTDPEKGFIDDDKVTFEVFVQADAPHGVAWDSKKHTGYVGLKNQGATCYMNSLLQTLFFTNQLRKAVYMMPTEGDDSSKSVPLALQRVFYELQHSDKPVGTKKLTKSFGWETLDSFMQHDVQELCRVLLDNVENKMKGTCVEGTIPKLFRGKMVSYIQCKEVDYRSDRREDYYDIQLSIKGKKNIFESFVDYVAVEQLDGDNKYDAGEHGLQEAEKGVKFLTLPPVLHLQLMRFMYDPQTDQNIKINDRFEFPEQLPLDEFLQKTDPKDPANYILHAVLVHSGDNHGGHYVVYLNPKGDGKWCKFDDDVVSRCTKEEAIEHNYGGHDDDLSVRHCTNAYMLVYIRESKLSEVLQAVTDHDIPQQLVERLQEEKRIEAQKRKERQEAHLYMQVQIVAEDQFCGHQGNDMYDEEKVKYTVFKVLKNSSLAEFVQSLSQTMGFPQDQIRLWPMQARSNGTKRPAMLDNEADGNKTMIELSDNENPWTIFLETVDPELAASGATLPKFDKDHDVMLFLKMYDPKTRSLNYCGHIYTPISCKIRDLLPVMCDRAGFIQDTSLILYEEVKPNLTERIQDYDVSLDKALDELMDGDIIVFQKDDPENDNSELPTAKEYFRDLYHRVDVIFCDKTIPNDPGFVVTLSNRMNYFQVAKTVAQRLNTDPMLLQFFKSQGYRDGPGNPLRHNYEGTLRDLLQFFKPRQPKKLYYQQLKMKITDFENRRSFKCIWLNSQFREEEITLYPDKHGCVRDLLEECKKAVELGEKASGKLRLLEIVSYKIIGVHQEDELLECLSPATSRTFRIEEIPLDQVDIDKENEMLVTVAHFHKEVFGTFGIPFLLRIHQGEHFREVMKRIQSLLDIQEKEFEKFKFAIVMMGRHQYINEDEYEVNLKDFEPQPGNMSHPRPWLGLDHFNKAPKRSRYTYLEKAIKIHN

The target of this assay is USP7 (Homo sapiens, UniProt Q93009). Briefly: USP7 inhibitory potency (IC50). In kind it is biochemical. The method, then:
Activity for compounds described herein is provided in Table 2, wherein potency levels are provided as follows: (Potency: USP7 IC50: A<0.01 μM; B=0.01-0.1 μM; C=>0.1 μM.
As for `Cc1cc(Cl)cc(-c2ccnc3cc(CN4C(=O)C5CC5C4=O)sc23)c1C[C@H]1O[C@H](C)CNC1=O` (stereo partly drawn) [Example 105, 3-((7-(5-chloro-3-methyl-2-(((2R,6R)-6-methyl-3-oxomorpholin-2-yl)methyl)phenyl)thieno[3,2-b]pyridin-2-yl)methyl)-3-azabicyclo[3.1.0]hexane-2,4-dione], the concentration for half-maximal inhibition (IC50) is over 100 nM.

In turn, `Cc1cc(Cl)cc(-c2ncnc3cc(CN4C(=O)CN(CC(F)F)C4=O)sc23)c1CN1[C@@H](C)CNC[C@@H]1C` [Example 277, 3-((4-(5-chloro-2-(((2S,6S)-2,6-dimethylpiperazin-1-yl)methyl)-3-methylphenyl)thieno[3,2-d]pyrimidin-6-yl)methyl)-1-(2,2-difluoroethyl)imidazolidine-2,4-dione] showed a concentration for half-maximal inhibition (IC50) of under 10 nM. The value for `Cc1cc(Cl)cc(-c2ncnc3cc(CN4C(=O)OC[C@@H]4CF)sc23)c1C[C@@H]1CNCC(C)(C)O1` [Example 263, (R)-3-((4-(5-chloro-2-(((R)-6,6-dimethylmorpholin-2-yl)methyl)-3-methylphenyl)thieno[3,2-d]pyrimidin-6-yl)methyl)-4-(fluoromethyl)oxazolidin-2-one] was under 10 nM; that for `Cc1cc(Cl)cc(-c2ncnc3cc(CN4C(=O)C5CC5C4=O)sc23)c1CC1CNC(C)(C)CO1` (stereo not drawn) [Example 158, 3-((4-(5-chloro-2-((5,5-dimethylmorpholin-2-yl)methyl)-3-methylphenyl)thieno[3,2-d]pyrimidin-6-yl)methyl)-3-azabicyclo[3.1.0]hexane-2,4-dione] was 10 to 100 nM.

`Cc1cc(Cl)cc(-c2ncnc3cc(CN4C(=O)C5CC5C4=O)sc23)c1C[C@H]1CNCC(C)(C)O1` (stereo partly drawn) [Example 213, 3-((4-(5-chloro-2-(((S)-6,6-dimethylmorpholin-2-yl)methyl)-3-methylphenyl)thieno[3,2-d]pyrimidin-6-yl)methyl)-3-azabicyclo[3.1.0]hexane-2,4-dione] yielded an IC50 of 10 to 100 nM. The value for `Cc1cc(Cl)cc(-c2ncnc3cc(CN4C(=O)C5CCC5C4=O)sc23)c1CC1CNCC(C)(C)O1` (stereo not drawn) [Example 180, 3-((4-(5-chloro-2-((6,6-dimethylmorpholin-2-yl)methyl)-3-methylphenyl)thieno[3,2-d]pyrimidin-6-yl)methyl)-3-azabicyclo[3.2.0]heptane-2,4-dione] was under 10 nM; that for `C[C@H]1CNC[C@H](C)N1Cc1c(Cl)cc(Cl)cc1-c1ncnc2cc(CN3C(=O)CN(C)C3=O)sc12` [Example 94, 3-((4-(3,5-dichloro-2-(((2S,6S)-2,6-dimethylpiperazin-1-yl)methyl)phenyl)thieno[3,2-d]pyrimidin-6-yl)methyl)-1-methylimidazolidine-2,4-dione] was under 10 nM; that for `Cc1cc(Cl)cc(-c2ncnc3cc(CN4C(=O)C5CC5C4=O)sc23)c1CC1CNCC(C)(C)O1` (stereo not drawn) [Example 154, 3-((4-(5-chloro-2-((6,6-dimethylmorpholin-2-yl)methyl)-3-methylphenyl)thieno[3,2-d]pyrimidin-6-yl)methyl)-3-azabicyclo[3.1.0]hexane-2,4-dione] was under 10 nM.

The compound `Cc1cc(Cl)cc(-c2ncnc3cc(CN4C(=O)C5CC5C4=O)sc23)c1CC1CNCCOC1` (stereo not drawn) [Example 185, 3-((4-(2-((1,4-oxazepan-6-yl)methyl)-5-chloro-3-methylphenyl)thieno[3,2-d]pyrimidin-6-yl)methyl)-3-azabicyclo[3.1.0]hexane-2,4-dione] gave a 50% inhibitory concentration (IC50) of 10 to 100 nM.

Turning to `C[C@H]1CNC[C@H](C)N1Cc1c(Cl)cc(Cl)cc1-c1ccnc2cc(CN3C(=O)C4CC4C3=O)sc12` (stereo partly drawn) [Example 47, 3-((7-(3,5-dichloro-2-(((2S,6S)-2,6-dimethylpiperazin-1-yl)methyl)phenyl)thieno[3,2-b]pyridin-2-yl)methyl)-3-azabicyclo[3.1.0]hexane-2,4-dione], the IC50 is under 10 nM. The value for `C[C@H]1CNC[C@H](C)N1Cc1c(Cl)cc(Cl)cc1-c1ncnc2cc(CN3C(=O)C4CC4C3=O)sc12` (stereo partly drawn) [Example 85, 3-((4-(3,5-dichloro-2-(((2S,6S)-2,6-dimethylpiperazin-1-yl)methyl)phenyl)thieno[3,2-d]pyrimidin-6-yl)methyl)-3-azabicyclo[3.1.0]hexane-2,4-dione] was under 10 nM; that for `Cc1cc(Cl)cc(-c2ncnc3cc(CN4C(=O)C5C(C4=O)C5(C)C)sc23)c1CC1CNCCO1` (stereo not drawn) [Example 151, 3-((4-(5-chloro-3-methyl-2-(morpholin-2-ylmethyl)phenyl)thieno[3,2-d]pyrimidin-6-yl)methyl)-6,6-dimethyl-3-azabicyclo[3.1.0]hexane-2,4-dione] was under 10 nM; that for `Cc1cc(Cl)cc(-c2ncnc3cc(CN4C(=O)C5CC5C4=O)sc23)c1CN1CCN(C)C[C@@H]1C` (stereo partly drawn) [Example 55, 3-((4-(5-chloro-2-(((S)-2,4-dimethylpiperazin-1-yl)methyl)-3-methylphenyl)thieno[3,2-d]pyrimidin-6-yl)methyl)-3-azabicyclo[3.1.0]hexane-2,4-dione] was 10 to 100 nM. Under `Cc1cc(Cl)cc(-c2ccnc3cc(CN4C(=O)CN(C)C4=O)sc23)c1CC1CNCCO1` (stereo not drawn) [Example 117, 3-((7-(5-chloro-3-methyl-2-(morpholin-2-ylmethyl)phenyl)thieno[3,2-b]pyridin-2-yl)methyl)-1-methylimidazolidine-2,4-dione] stands under 10 nM; under `Cc1cc(Cl)cc(-c2ncnc3cc(CN4CCCC4=O)sc23)c1CC1CNCCO1` (stereo not drawn) [Example 174, 1-((4-(5-chloro-3-methyl-2-(morpholin-2-ylmethyl)phenyl)thieno[3,2-d]pyrimidin-6-yl)methyl)pyrrolidin-2-one], over 100 nM. Under `Cc1cc(Cl)cc(-c2ccnc3cc(CN4C(=O)C5C(C4=O)C5(C)C)sc23)c1CN1CCNC[C@@H]1C` (stereo partly drawn) [Example 20, 3-((7-(5-chloro-3-methyl-2-(((S)-2-methylpiperazin-1-yl)methyl)phenyl)thieno[3,2-b]pyridin-2-yl)methyl)-6,6-dimethyl-3-azabicyclo[3.1.0]hexane-2,4-dione] stands under 10 nM; under `Cc1cc(Cl)cc(-c2ccnc3cc(CN4C(=O)C5CCC5C4=O)sc23)c1CC1CNCCO1` (stereo not drawn) [Example 110, 3-((7-(5-chloro-3-methyl-2-(morpholin-2-ylmethyl)phenyl)thieno[3,2-b]pyridin-2-yl)methyl)-3-azabicyclo[3.2.0]heptane-2,4-dione], under 10 nM; under `CC1(C)CNCC(Cc2c(Cl)cc(Cl)cc2-c2ccnc3cc(CN4C(=O)CCC4=O)sc23)O1` (stereo not drawn) [Example 128, 1-((7-(3,5-dichloro-2-((6,6-dimethylmorpholin-2-yl)methyl)phenyl)thieno[3,2-b]pyridin-2-yl)methyl)pyrrolidine-2,5-dione], under 10 nM. Compound `Cc1cc(Cl)cc(-c2ncnc3cc(Cn4c(=O)ccn(C)c4=O)sc23)c1CC1CNCC(C)(C)O1` (stereo not drawn) [Example 192, 3-((4-(5-chloro-2-((6,6-dimethylmorpholin-2-yl)methyl)-3-methylphenyl)thieno[3,2-d]pyrimidin-6-yl)methyl)-1-methylpyrimidine-2,4(1H,3H)-dione] displayed an IC50 of under 10 nM. Compound `COC[C@H]1CCC(=O)N1Cc1cc2ncnc(-c3cc(Cl)cc(C)c3CC3CNCC(C)(C)O3)c2s1` (stereo partly drawn) [Example 229, (5R)-1-((4-(5-chloro-2-((6,6-dimethylmorpholin-2-yl)methyl)-3-methylphenyl)thieno[3,2-d]pyrimidin-6-yl)methyl)-5-(methoxymethyl)pyrrolidin-2-one] gave an IC50 of 10 to 100 nM.

On to `Cc1cc(Cl)cc(-c2ncnc3cc(CN4C(=O)C5CC5C4=O)sc23)c1C[C@@H]1CN(C(=O)C(F)(F)F)CCO1` (stereo partly drawn) [Example 199, 3-((4-(5-chloro-3-methyl-2-(((R)-4-(2,2,2-trifluoroacetyl)morpholin-2-yl)methyl)phenyl)thieno[3,2-d]pyrimidin-6-yl)methyl)-3-azabicyclo[3.1.0]hexane-2,4-dione], for which the concentration for half-maximal inhibition (IC50) is under 10 nM. The value for `Cc1cc(Cl)cc(-c2ncnc3cc(CNC4(CCC(=O)O)CC4)sc23)c1CC1CNCC(C)(C)O1` (stereo not drawn) [Example 202, 3-(1-(((4-(5-chloro-2-((6,6-dimethylmorpholin-2-yl)methyl)-3-methylphenyl)thieno[3,2-d]pyrimidin-6-yl)methyl)amino)cyclopropyl)propanoic acid] was 10 to 100 nM; that for `Cc1cc(Cl)cc(-c2ncnc3cc(CN4C(=O)CN(CCCC(=O)O)C4=O)sc23)c1C[C@@H]1CNCCO1` [Example 264, (R)-4-(3-((4-(5-chloro-3-methyl-2-(morpholin-2-ylmethyl)phenyl)thieno[3,2-d]pyrimidin-6-yl)methyl)-2,4-dioxoimidazolidin-1-yl)butanoic acid] was 10 to 100 nM.

The compound `Cc1cc(Cl)cc(-c2ncnc3cc(CN4C(=O)CC[C@@H]4C(F)F)sc23)c1CC1CNCC(C)(C)O1` (stereo partly drawn) [Example 230, (5R)-1-((4-(5-chloro-2-((6,6-dimethylmorpholin-2-yl)methyl)-3-methylphenyl)thieno[3,2-d]pyrimidin-6-yl)methyl)-5-(difluoromethyl)pyrrolidin-2-one] had a 50% inhibitory concentration (IC50) of under 10 nM.

`CC1(C)CNCC(Cc2c(Cl)cc(Cl)cc2-c2ccnc3cc(CN4C(=O)C5CC5C4=O)sc23)O1` (stereo not drawn) [Example 139, 3-((7-(3,5-dichloro-2-((6,6-dimethylmorpholin-2-yl)methyl)phenyl)thieno[3,2-b]pyridin-2-yl)methyl)-3-azabicyclo[3.1.0]hexane-2,4-dione] gave an IC50 of under 10 nM. Under `Cc1cc(Cl)cc(-c2ccnc3cc(Cn4c(=O)ccn(CC(F)(F)F)c4=O)sc23)c1CN1CCNCC1` [Example 2, 3-((7-(5-chloro-3-methyl-2-(piperazin-1-ylmethyl)phenyl)thieno[3,2-b]pyridin-2-yl)methyl)-1-(2,2,2-trifluoroethyl)pyrimidine-2,4(1H,3H)-dione] stands under 10 nM; under `Cc1cc(Cl)cc(-c2ncnc3cc(CN4C(=O)CCNC4=O)sc23)c1C[C@@H]1CNCC(C)(C)O1` [Example 270, (R)-3-((4-(5-chloro-2-((6,6-dimethylmorpholin-2-yl)methyl)-3-methylphenyl)thieno[3,2-d]pyrimidin-6-yl)methyl)dihydropyrimidine-2,4(1H,3H)-dione], under 10 nM.

Source of the values: patent US11084829B2, “Ubiquitin-specific-processing protease 7 (USP7) modulators and uses thereof” (RAPT THERAPEUTICS, INC., priority 2018, dated 2021).
